Measured values: US20210369664A1, “PROPHYLACTIC OR THERAPEUTIC AGENT FOR PULMONARY HYPERTENSION WHICH COMPRISES PPAR? AGONIST” (TOHOKU UNIVERSITY, priority 2016, published 2021)

Columns and labels:
[1] = Average body weight of the administration groups in the hypoxia test; type: in vivo
Description: After the hypoxic stimulation for 3 weeks, a 1.2-Fr catheter (SciSense Inc., Ontario, Canada) was inserted in the jugular vein of the mice under isoflurane anesthesia and advanced into the right ventricle to measure a right ventricular systolic pressure. In addition, after the measurement of the right ventricular systolic pressure, the heart and the lungs were dissected. For the heart, the right ventricle and the left ventricle were separated and their weight ratio was measured to assess right ventricular hypertrophy. The average body weights of the Control group (PPARα agonist: −, Hypoxia [3 wks]: −), the Vehicle group (PPARα agonist: −, Hypoxia [3 wks]: +), and the WY-14643 administration group (PPARα agonist: +, Hypoxia [3 wks]: +) before the test were 29.2±1.2 g, 28.9±1.0 g, and 29.6±1.4 g, respectively. In addition, the average body weights of the Control group, the Vehicle group, and the WY-14643 administration group after the test were 32.1±2.1 g, 23.5±1.8 g, and 25.7±2.0 g, respectively.

[2] = test system: hypoxia-induced pulmonary hypertension mice; details: WY-14643 3 mg/kg/day by mixed feed
Description: Hypoxia-induced pulmonary hypertension mice serving as a model generally used in an animal experiment for pulmonary hypertension were administered a PPARα agonist (WY-14643, Sigma) at 3 mg/kg/day by mixed feed. Specifically, first, 8-week-old male wild-type mice (Balb/c mice, n=12 per group) were housed in a transparent acrylic box with an oxygen concentration controlled to 10% using a hypoxia generator (Teijin Limited, Japan) under a 12 h light and dark cycle. The mice were stimulated by hypoxia for 3 weeks, and a diet in this period was mixed with WY-14643 (the following solution was used as WY-14643: 1 mg of WY-14643 was dissolved in 0.1 ml of DMSO, and the solution of WY-14643 in DMSO was mixed with ultrapure water (mQ or ultrapure water) to prepare a 100 ml solution). The administration by mixed feed was performed at 3 mg/kg/day according to the previous report (Andrew D, et al. Hepatology. 2012; 56: 281-290). […] The following tests were also performed as controls: a test in which the mice were stimulated by hypoxia in the same manner as described above except that the mice were administered a 1:1,000 (V/V) mixed solution of DMSO and ultrapure water by mixed feed in place of WY-14643 as a diet; and a test in which the mice were administered the mixed solution of DMSO and ultrapure water by mixed feed in place of WY-14643 as a diet and were not stimulated by hypoxia.
After the hypoxic stimulation for 3 weeks, a 1.2-Fr catheter (SciSense Inc., Ontario, Canada) was inserted in the jugular vein of the mice under isoflurane anesthesia and advanced into the right ventricle to measure a right ventricular systolic pressure. In addition, after the measurement of the right ventricular systolic pressure, the heart and the lungs were dissected. For the heart, the right ventricle and the left ventricle were separated and their weight ratio was measured to assess right ventricular hypertrophy.
In addition, in tissue slides of the formalin-fixed lungs of each group, the number of pulmonary vessels including thrombi was counted for a field of about 100 mm^2, and the number of the pulmonary vessels including thrombi per 100 mm^2 was calculated. […] The resultant plasma sample was measured for its D-dimer concentration in plasma (unit: ng/ml) through the use of an ELISA kit (CEA506Mu manufactured by Life Science Inc.) according to the instruction of the kit. In addition, the plasma sample was measured for its thrombin-antithrombin complex (TAT) concentration in plasma (unit: pg/ml) through the use of an ELISA kit (SEA831Mu manufactured by Life Science Inc.) according to the instruction of the kit.
The dissected lungs were fixed with 10% formalin for 24 hours, and then 3 μm sections of the specimens were used to prepare slides. The slides were subjected to Elastica-Masson staining for staining elastic fiber in order to assess vessel wall thickening (remodeling). 60 to 80 distal pulmonary arteries having diameters of from 20 μm to 70 μm were observed per mouse, and their wall thickening was divided into 3 stages.

Compound | average body weight after the test ([1]; WY-14643 administration group, 3 mg/kg/day, after 3 weeks hypoxia, Example 1) | thrombus formation (number of pulmonary vessels including thrombi per 100 mm^2) ([2]; chronic hypoxic stimulation 3 weeks, lung tissue slides (FIG. 2)) | pulmonary hypertension (overall result) ([2]; hypoxia 3 weeks) | remodeling of distal pulmonary vessels (Elastica-Masson staining) ([2]; hypoxia 3 weeks (FIG. 3)) | right ventricular hypertrophy (right ventricle/(left ventricle plus septum) weight ratio) ([2]; hypoxia 3 weeks, Balb/c mice (FIG. 1)) | D-dimer/TAT ratio (indicator of impaired fibrinolytic capacity) ([2]; hypoxia 3 weeks, plasma, ELISA (FIG. 2)) | right ventricular systolic pressure ([2]; hypoxia (10% oxygen) 3 weeks, Balb/c mice, vs vehicle (FIG. 1)) | average body weight after the test ([1]; fenofibrate administration group, 50 mg/kg/day, Example 3)
Cc1cccc(Nc2cc(Cl)nc(SCC(=O)O)n2)c1C [WY-14643, [[4-chloro-6-[(2,3-dimethylphenyl)amino]pyrimidin-2-yl]thio]acetic acid] | 25.7 ± 2.0 g | suppressed the increase in thrombus formation | ameliorated pulmonary hypertension | significant reduction | Significant reductions | its reduction was found | Significant reductions | 
CC(C)OC(=O)C(C)(C)Oc1ccc(C(=O)c2ccc(Cl)cc2)cc1 [fenofibrate, isopropyl 2-[4-(4-chlorobenzoyl)phenoxy]-2-methylpropionate] |  |  |  |  |  |  |  | 334.30 ± 20.67 g
